Laboratory results as given in patent US5935597A, “Drug delivery devices and methods for treatment of viral and microbial infections and wasting syndromes” (Cryopreservation Technologies CC, priority 1995, dated 1999).

How the values were obtained:
[1] = system: HIV; assay: Example 8 pilot study: clinical condition and Karnofsky performance scale in HIV infected patients; format: in vivo, human
Procedure: (§1) A pilot study was conducted to evaluate the efficacy of transdermal DMF in the treatment of patients infected with HIV. Informed consent was obtained from each patient. Seropositive status was verified by Western blot using a commercial kit for detecting antibodies to p24 (Abbott Diagnostics) and the presence of HIV-1 was documented by quantitative PCR using a commercial kit (Roche Amplicor).
(§2) Dermal patches 9 cm in diameter were used within 12 hours of manufacture. […] The patches were visually inspected to verify the absence of leakage and were weighed on an analytical balance to verify less than 10% deviation from a total mass of 8.153 g. The patches were applied to the skin of the forearm and secured with Elastoplast™ bandages. Either one or two patches were used for the initial dose, as determined from the predicted skin transfer rate of 9.4 mg/cm^2 /hr and the patient's body weight.
(§3) A staged dose of DMF was used, with two-hourly blood and urine sampling to determine peak plasma DMF levels. […] Initial evaluation included daily determination of:
b) clinical checklist and Karnofsky score;
(See Karnofsky et al., […], Cancer 1:634-656). […] Additional anti-microbial therapy for secondary infections was rarely needed. […] Clinical improvement correlated well with disease status as assessed by viral load and CD4+ T cell count.

[2] = Example 8 pilot study: adverse effects and liver enzymes; format: in vivo, human
Procedure: as §1, §2, §3
b) serum urea, creatinine, glucose, sodium, potassium, ALT, AST, alkaline phosphatase and total bilirubin;

[3] = Absorption of liquid DMF through human skin; format: in vivo; conditions: two patches of diameter 9 cm, 127 cm^2 skin
Procedure: For transdermal administration of a polar compound, the rate of absorption is determined by the skin of the subject. […] Accordingly, the desired rate of absorption may be achieved by controlling the surface area of the skin exposed to the drug, as by determining the area of each patch and the number of patches applied to the skin.

[4] = cited from earlier work
[5] = system: human cancer xenografts; conditions: intraperitoneal injection, nude mice; cited from earlier work

For `CN(C)C=O` [DMF, N,N'-dimethylformamide], the “need for additional anti-microbial therapy for secondary infections” value ([1]; 8 patients) was “rarely needed”, the “neurological symptoms and Herpes viral infections” value ([1]; 8 patients) was “Improvement in neurological symptoms and Herpes viral infections was remarkable” and the “general condition, Karnofsky performance scale” value ([1]; 8 patients, before and after treatment (FIG. 4)) was “every patient showed improved general condition”. The clinical outcome ([1]; Patient 1, after 7 weeks) was “appetite had improved, the respiratory difficulties had resolved, the patient appeared clinically well and started exercising again”, the clinical outcome ([1]; Patient 2, after 9 weeks) was “herpetic sores had resolved, the limb pains had disappeared and the patient appeared clinically well” and the clinical outcome ([1]; Patient 3, after 10 weeks) was “the patient was clinically well and no longer complained of pain in the limbs”. For the same compound, the clinical outcome ([1]; Patient 4, after 18 weeks) was “The patient appeared clinically well and had no active medical complaints”, the clinical outcome ([1]; Patient 5, after 19 weeks) was “The secondary infections had resolved and the patient appeared clinically well” and the clinical outcome ([1]; Patient 6, after 5 weeks) was “The patient was clinically well”. The clinical outcome ([1]; Patient 7, after 9 treatments) was “The patient felt well and had returned to full-time employment”, the clinical outcome ([1]; Patient 8, after 8 weeks) was “the Herpes lesions had entirely resolved” and the clinical improvement ([1]; after 2-3 weeks of treatment) was “Virtually all patients showed clinical improvement”. The “general fatigue and appetite” value ([1]; within the first 14 days of DMF treatment) was “marked improvement in general fatigue and in appetite”, the “maximum elevation of liver enzymes” value ([2]; four patients with transient elevation) was “three” and the “local skin irritation at the area of application” value ([2]; most patients, after removal of the patches) was “mild local skin irritation”. The “appearance of skin at the application site” value ([2]; most patients, probably due to intense hydration under the patch) was “maculopapular appearance”, the nausea ([2]; most patients, usually on day three after treatment) was “mild transient nausea” and the “patients with transient elevation of liver enzymes” value ([2]; of 8 patients, in most cases returned to pre-treatment levels before next dose) was “Four”. The blistering ([2]; one case, resolved within 24 hours) was “slight blistering”, the nausea ([2]; one patient) was “moderate transient nausea” and the absorption rate [3] was “about 1.2 g of DMF per hour”. For the same compound, the acute toxicity ([4]; dermal, oral and inhalation) was “low acute dermal, oral and inhalation toxicity”, the hepatic toxicity ([4]; in vivo) was “reversible hepatic damage” and the mutagenicity and carcinogenicity ([4]; in vivo) was “not thought to be a mutagen or a carcinogen”. The “skin and eye irritation” value ([4]; in vivo) was “mild to moderate skin and eye irritant”, the skin sensitization ([4]; in vivo) was “no indication of skin sensitizing properties” and the teratogenicity ([4]; in vivo) was “teratogenic”. The “growth of human cancer xenografts” value [5] was “slow the growth of certain human cancer xenografts”.
